What was measured:
Assay type in all cases: in vivo
[1] = system: Puccinia recondita; assay: Brown Rust (PUCCRT), protectant spray test on wheat seedlings; settings: wheat (cultivar Monon), sprayed to run off at 100 ppm, inoculated after 24 hours
[2] = system: Phytophthora infestans; settings: tomatoes (cultivar Rutgers), sprayed to run off at 100 ppm, inoculated after 24 hours
[3] = system: Leptosphaeria nodorum; assay: Glume Blotch of Wheat (LEPTNO), protectant spray test on wheat seedlings; settings: wheat (cultivar Monon), sprayed to run off at 100 ppm, inoculated after 24 hours
[4] = system: Erysiphe graminis; assay: Powdery Mildew of Wheat (ERYSGT), protectant spray test on wheat seedlings; settings: wheat (cultivar Monon), sprayed to run off at 100 ppm, inoculated after 24 hours

Compound	PUCCRT control of plant disease [1]	PHYTIN control of plant disease [2]	LEPTNO control of plant disease [3]	ERYSGT control of plant disease [4]
CNC(=O)C(=NOC)c1ccccc1COc1ncc(C(C)OCc2ccccc2OC)cc1Cl (centres unmarked) [Example 97]	++ (++ = 75-100% control of plant disease)	− (− = 0-24% control of plant disease)	++ (++ = 75-100% control of plant disease)	++ (++ = 75-100% control of plant disease)
CNC(=O)C(=NOC)c1ccccc1COc1ncc(C(OC(C)=O)c2ccccc2)cc1C (centres unmarked) [Example 98]	++ (++ = 75-100% control of plant disease)	++ (++ = 75-100% control of plant disease)	++ (++ = 75-100% control of plant disease)	++ (++ = 75-100% control of plant disease)
CNC(=O)C(=NOC)c1ccccc1COc1ncc(C(OC)c2ccccc2F)cc1Cl (centres unmarked) [Example 99]	++ (++ = 75-100% control of plant disease)	− (− = 0-24% control of plant disease)	++ (++ = 75-100% control of plant disease)	++ (++ = 75-100% control of plant disease)
CNC(=O)C(=NOC)c1ccccc1COc1ncc(C(O)c2ccc(Oc3ccccc3)cc2)cc1Cl (centres unmarked) [Example 100]	++ (++ = 75-100% control of plant disease)	++ (++ = 75-100% control of plant disease)	++ (++ = 75-100% control of plant disease)	++ (++ = 75-100% control of plant disease)
CNC(=O)C(=NOC)c1ccccc1COc1ncc(C(OCc2ccc(OC)cc2)c2ccccc2)cc1Cl (centres unmarked) [Example 101]	++ (++ = 75-100% control of plant disease)	++ (++ = 75-100% control of plant disease)	+ (+ = 25-74% control of plant disease)	++ (++ = 75-100% control of plant disease)
CNC(=O)C(=NOC)c1ccccc1COc1ncc(C(O)c2ccc(C(F)(F)F)cc2)cc1Cl (centres unmarked) [Example 102]	++ (++ = 75-100% control of plant disease)	++ (++ = 75-100% control of plant disease)	++ (++ = 75-100% control of plant disease)	++ (++ = 75-100% control of plant disease)
CNC(=O)C(=NOC)c1ccccc1COc1ncc(C(O)c2cccc3ccccc23)cc1Cl (centres unmarked) [Example 103]	++ (++ = 75-100% control of plant disease)	++ (++ = 75-100% control of plant disease)	++ (++ = 75-100% control of plant disease)	+ (+ = 25-74% control of plant disease)
CNC(=O)C(=NOC)c1ccccc1COc1ncc(C(O)c2ccccn2)cc1Cl (centres unmarked) [Example 105]	++ (++ = 75-100% control of plant disease)	++ (++ = 75-100% control of plant disease)	++ (++ = 75-100% control of plant disease)	++ (++ = 75-100% control of plant disease)
CNC(=O)C(=NOC)c1ccccc1COc1ncc(C(OC(C)=O)c2cccc(C)c2)cc1Cl (centres unmarked) [Example 106]	++ (++ = 75-100% control of plant disease)	++ (++ = 75-100% control of plant disease)	++ (++ = 75-100% control of plant disease)	++ (++ = 75-100% control of plant disease)
CNC(=O)C(=NOC)c1ccccc1COc1ncc(C(COC(C)=O)(OC(C)=O)c2ccccc2)cc1Cl (centres unmarked) [Example 107]	++ (++ = 75-100% control of plant disease)	++ (++ = 75-100% control of plant disease)	++ (++ = 75-100% control of plant disease)	++ (++ = 75-100% control of plant disease)
CNC(=O)C(=NOC)c1ccccc1COc1ncc(C(OC(C)=O)c2ccccn2)cc1Cl (centres unmarked) [Example 108]	++ (++ = 75-100% control of plant disease)	++ (++ = 75-100% control of plant disease)	++ (++ = 75-100% control of plant disease)	++ (++ = 75-100% control of plant disease)
CNC(=O)C(=NOC)c1ccccc1COc1ncc(C(O)c2ccsc2)cc1Cl (centres unmarked) [Example 109]	++ (++ = 75-100% control of plant disease)	++ (++ = 75-100% control of plant disease)	++ (++ = 75-100% control of plant disease)	++ (++ = 75-100% control of plant disease)
CNC(=O)C(=NOC)c1ccccc1COc1ncc(C(O)c2ccc(OC)c(OC)c2)cc1Cl (centres unmarked) [Example 110]	++ (++ = 75-100% control of plant disease)	++ (++ = 75-100% control of plant disease)	++ (++ = 75-100% control of plant disease)	++ (++ = 75-100% control of plant disease)
CNC(=O)C(=NOC)c1ccccc1COc1ncc(C(OC(C)=O)c2cccc(C)c2)cc1Cl (centres unmarked) [Example 112]	++ (++ = 75-100% control of plant disease)	++ (++ = 75-100% control of plant disease)	++ (++ = 75-100% control of plant disease)	++ (++ = 75-100% control of plant disease)
CNC(=O)C(=NOC)c1ccccc1COc1ncc(C(OC)c2cccc(C)c2)cc1Cl (centres unmarked) [Example 114]	++ (++ = 75-100% control of plant disease)	− (− = 0-24% control of plant disease)	++ (++ = 75-100% control of plant disease)	++ (++ = 75-100% control of plant disease)
CNC(=O)C(=NOC)c1ccccc1COc1cc(OC)c(C(OC)c2cccc(C)c2)cn1 (centres unmarked) [Example 115]	++ (++ = 75-100% control of plant disease)	− (− = 0-24% control of plant disease)	++ (++ = 75-100% control of plant disease)	+ (+ = 25-74% control of plant disease)
CNC(=O)C(=NOC)c1ccccc1COc1ncc(C(OC(C)=O)c2ccc(OC)c(OC)c2)cc1Cl (centres unmarked) [Example 116]	++ (++ = 75-100% control of plant disease)	+ (+ = 25-74% control of plant disease)	++ (++ = 75-100% control of plant disease)	++ (++ = 75-100% control of plant disease)
CNC(=O)C(=NOC)c1ccccc1COc1ncc(C(OC(C)C)c2ccccc2)cc1Cl (centres unmarked) [Example 117]	++ (++ = 75-100% control of plant disease)	− (− = 0-24% control of plant disease)	++ (++ = 75-100% control of plant disease)	++ (++ = 75-100% control of plant disease)
CCOCCOC(c1ccccc1)c1cnc(OCc2ccccc2C(=NOC)C(=O)NC)c(Cl)c1 (centres unmarked) [Example 118]	++ (++ = 75-100% control of plant disease)	− (− = 0-24% control of plant disease)	++ (++ = 75-100% control of plant disease)	++ (++ = 75-100% control of plant disease)
CNC(=O)C(=NOC)c1ccccc1COc1ncc(C(OC(C)(C)C)c2ccccc2)cc1Cl (centres unmarked) [Example 119]	++ (++ = 75-100% control of plant disease)	++ (++ = 75-100% control of plant disease)	++ (++ = 75-100% control of plant disease)	++ (++ = 75-100% control of plant disease)
CCCOC(c1ccccc1)c1cnc(OCc2ccccc2C(=NOC)C(=O)NC)c(Cl)c1 (centres unmarked) [Example 120]	− (− = 0-24% control of plant disease)	+ (+ = 25-74% control of plant disease)	+ (+ = 25-74% control of plant disease)	++ (++ = 75-100% control of plant disease)
CNC(=O)C(=NOC)c1ccccc1COc1ncc(C2(c3ccccc3)COC(C)(C)O2)cc1Cl (centres unmarked) [Example 123]	++ (++ = 75-100% control of plant disease)	++ (++ = 75-100% control of plant disease)	++ (++ = 75-100% control of plant disease)	++ (++ = 75-100% control of plant disease)
CNC(=O)C(=NOC)c1ccccc1COc1ncc(C2(c3ccccc3)CO2)cc1Cl (centres unmarked) [Example 124]	++ (++ = 75-100% control of plant disease)	++ (++ = 75-100% control of plant disease)	++ (++ = 75-100% control of plant disease)	++ (++ = 75-100% control of plant disease)

— patent publication US6436963B1 (priority 1998, dated 2002)
